Measurements reported in ChEMBL document CHEMBL1158212, “Squamotacin: an annonaceous acetogenin with cytotoxic selectivity for the human prostate tumor cell line (PC-3)” (J Nat Prod, 1996).
In brackets after ≈: the same amount, converted by molar mass.

Columns and labels:
A549 = test: Cytotoxicity against human A549 cells; assay type: functional; conditions: for EC50: Homo sapiens, A549, read-out: ED50 (the source's name)
MCF7 = test: Cytotoxicity against human MCF7 cells; assay type: functional; conditions: read-out: ED50 (the source's name)
HT-29 = test: Cytotoxicity against human HT29 cells; assay type: functional; conditions: read-out: ED50 (the source's name)
A498 = test: Cytotoxicity against human A498 cells; assay type: functional; conditions: for EC50: Homo sapiens, A498, read-out: ED50 (the source's name)
[1] = (§1) Toxicity in Artemia salina; assay type: organism-based; conditions: in vivo
[2] = Cytotoxicity against human PC3 cells; assay type: cell-based, PC-3; conditions: read-out: ED50 (the source's name)
MIA PaCa-2 = test: Cytotoxicity against human MIAPaCa2 cells; assay type: functional; conditions: for EC50: Homo sapiens, MIA PaCa-2, read-out: ED50 (the source's name)
Artemia salina = test: as §1; assay type: organism-based; conditions: in vivo

| SMILES | ED50 (A549) [×10⁻⁶ ug/ml] | EC50 (MCF7) [ng/mL] | EC50 (HT-29) [ng/mL] | ED50 (A498) [×10⁻⁵ ug/ml] | LC50 [1] [ng/mL] | CC50 [2] [ng/mL] | EC50 (A549) [ng/mL] | EC50 (A498) [ng/mL] | EC50 (MIA PaCa-2) [ng/mL] | LC50 (Artemia salina) [×10⁻² ug/ml] | ED50 (MIA PaCa-2) [×10⁻⁴ ug/ml] |
| --- | --- | --- | --- | --- | --- | --- | --- | --- | --- | --- | --- |
| CCCCCCCCCC[C@@H](O)[C@@H]1CC[C@@H]([C@@H]2CC[C@@H]([C@H](O)CCCCCCCCCC(O)CC3=CC(C)OC3=O)O2)O1 (stereo not given in full) [BULLATACIN] | 2.44 | 696 (≈ 1140 nM) | > 1000 | 4.85 | – | – | – | – | – | – | – |
| CCCCCCCCCC[C@H](O)[C@H]1CC[C@H]([C@H]2CC[C@H]([C@H](O)CCCCCCCCCC[C@@H](O)CC3=C[C@H](C)OC3=O)O2)O1 [BULLATACIN] | – | – | – | – | 1.59 (≈ 2.55 nM) | 1e-06 (≈ 1.61e-06 nM) | – | – | – | – | – |
| COc1cccc2c1C(=O)c1c(O)c3c(c(O)c1C2=O)C[C@@](O)(C(=O)CO)C[C@@H]3O[C@H]1C[C@H](N)[C@H](O)[C@H](C)O1 [DOXORUBICIN] | – | 347 (≈ 638 nM) | 41.6 (≈ 76.5 nM) | – | 257 (≈ 473 nM) | 342 (≈ 629 nM) | 28.4 (≈ 52.3 nM) | 24.9 (≈ 45.8 nM) | 3.17 (≈ 5.83 nM) | – | – |
| CCCCCCCCCC[C@H](O)[C@H]1CC[C@H]([C@H]2CC[C@H]([C@H](O)CCCCCCCC[C@@H](O)CC3=C[C@H](C)OC3=O)O2)O1 [MOLVIZARIN] | – | > 1000 | 7.32 (≈ 12.3 nM) | – | – | – | 63 (≈ 106 nM) | 709 (≈ 1190 nM) | 7.66 (≈ 12.9 nM) | 5.26 | – |
| CCCCCCCCCCCC[C@H](O)[C@H]1CC[C@H]([C@H]2CC[C@H]([C@H](O)CCCCCCCC[C@@H](O)CC3=C[C@H](C)OC3=O)O2)O1 [SQUAMOTACIN] | – | > 1000 | 1 (≈ 1.61 nM) | – | 6.8 (≈ 10.9 nM) | – | 27.7 (≈ 44.5 nM) | > 1000 | – | – | 1.33 |
